The values that follow come from ChEMBL document CHEMBL1143261, “Enantioselective actions of 4-amino-3-hydroxybutanoic acid and (3-amino-2-hydroxypropyl)methylphosphinic acid at recombinant GABA(C) receptors” (Bioorg Med Chem Lett, 2008).

T1 sequence (P24046 whole entry): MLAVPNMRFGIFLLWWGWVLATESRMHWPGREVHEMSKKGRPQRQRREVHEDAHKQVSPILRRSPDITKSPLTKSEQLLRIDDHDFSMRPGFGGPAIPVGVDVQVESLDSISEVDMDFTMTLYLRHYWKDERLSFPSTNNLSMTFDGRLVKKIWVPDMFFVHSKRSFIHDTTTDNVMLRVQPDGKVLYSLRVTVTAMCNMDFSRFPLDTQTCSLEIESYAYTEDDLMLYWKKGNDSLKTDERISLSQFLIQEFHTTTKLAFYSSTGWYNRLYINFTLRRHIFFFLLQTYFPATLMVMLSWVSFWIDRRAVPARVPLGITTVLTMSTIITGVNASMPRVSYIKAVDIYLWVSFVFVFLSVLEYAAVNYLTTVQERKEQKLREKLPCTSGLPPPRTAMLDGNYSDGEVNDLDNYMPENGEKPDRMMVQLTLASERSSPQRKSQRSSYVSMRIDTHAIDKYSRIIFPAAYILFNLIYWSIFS

One experiment addresses T1, Gamma-aminobutyric acid receptor subunit rho-1 (Homo sapiens, UniProt P24046). Nature of the experiment: Agonist activity at human recombinant GABAc rho1 receptor expressed in Xenopus laevis oocytes at -60mV by two-electrode voltage clamp method. The experiment is classed as functional, cell-based, Oocyte.
In the case of `NC[C@@H](O)CC(=O)O`, the EC50 turned out to be 44.8 µM.

For the molecule `NC[C@H](O)CC(=O)O`, the EC50 turned out to be 19.1 µM.

As for `C[C@@H](CCN)C(=O)O`, the EC50 was 65 µM.

A further experiment has as its target T1, Gamma-aminobutyric acid receptor subunit rho-1. Nature of the experiment: Antagonist activity at human recombinant GABAc rho1 receptor expressed in Xenopus laevis oocytes at -60mV by two-electrode voltage clamp method. It counts as functional, cell-based, Oocyte.
On to `CP(=O)(O)C[C@@H](O)CN`, for which the IC50 is 17.1 µM.

With `CP(=O)(O)C[C@H](O)CN`, the IC50 turned out to be 5.4 µM.

For the molecule `C[C@H](CCN)C(=O)O`, the IC50 came out at 16 µM.

By EC50 is commonly meant the concentration at which the effect is half-maximal. One may read the IC50 as the midpoint of a concentration-inhibition curve.
